Test results published in patent US10183009B2, “Therapeutic compounds and uses thereof” (GENENTECH, INC., priority 2014, dated 2019).

These compounds were tested against BRD9 (Homo sapiens (Human), UniProt Q9H8M2) (assay: BRD9 AlphaLisa Binding Assay). Settings: not given.
Procedure: After 20 minutes incubation at room temperature AlphaLisa Streptavidin Acceptor Beads (Perkin-A[…]) and AlphaLisa Nickel donor beads (Perkin AS 10 ID) were added to a final concentration of 15 ug/mL each.

Chain of BRD9 (Q9H8M2 134-239 limits assumed): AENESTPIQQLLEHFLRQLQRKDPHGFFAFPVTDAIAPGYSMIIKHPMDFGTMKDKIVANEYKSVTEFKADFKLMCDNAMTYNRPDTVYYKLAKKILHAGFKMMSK

Row | IC50 [nM] | Compound
1 | 32 | C/C=C/Cn1cc(-c2cnc(C(=O)N3CCOCC3)c(Cl)c2)c2cc(C)[nH]c2c1=O [Example 98, 6-[(E)-but-2-enyl]-4-[5-chloro-6-(morpholine-4-carbonyl)-3-pyridyl]-2-methyl-1H-pyrrolo[2,3-c]pyridin-7-one]
2 | 66 | CCCCn1cc(-c2cc(C(=O)N(C)C)ccc2OC)c2cc(C)[nH]c2c1=O [Example 87, 3-(6-butyl-2-methyl-7-oxo-1H-pyrrolo[2,3-c]pyridin-4-yl)-4-methoxy-N,N-dimethyl-benzamide]
3 | 300 | COc1ccc(C(=O)N(C)C)cc1-c1cn(CCC2CC2)c(=O)c2[nH]c(C)cc12 [Example 88, 3-[6-(2-cyclopropylethyl)-2-methyl-7-oxo-1H-pyrrolo[2,3-c]pyridin-4-yl]-4-methoxy-N,N-dimethyl-benzamide]
4 | 12 | C=CCn1cc(-c2ccc(C(=O)N3CCOCC3)c(Cl)c2)c2cc(C)[nH]c2c1=O [Example 101, 6-allyl-4-[3-chloro-4-(morpholine-4-carbonyl)phenyl]-2-methyl-1H-pyrrolo[2,3-c]pyridin-7-one]
5 | 23 | C/C=C/Cn1cc(-c2cc(C(=O)NCCN(C)C)ccc2OC)c2cc[nH]c2c1=O [Example 72, 3-[6-[(E)-but-2-enyl]-7-oxo-1H-pyrrolo[2,3-c]pyridin-4-yl]-N-[2-(dimethylamino)ethyl]-4-methoxy-benzamide]
6 | 320 | CC(C)CCn1cc(-c2cccc(C(=O)N(C)C)c2)c2cc[nH]c2c1=O [Example 10, 3-(6-isopentyl-7-oxo-1H-pyrrolo[2,3-c]pyridin-4-yl)-N,N-dimethyl-benzamide]
7 | 82 | C/C=C/Cn1cc(-c2cccc(C(=O)N(C)C)c2F)c2cc[nH]c2c1=O [Example 42, 3-[6-[(E)-but-2-enyl]-7-oxo-1H-pyrrolo[2,3-c]pyridin-4-yl]-fluoro-N,N-dimethyl-benzamide]
8 | 9 | C/C=C/Cn1cc(-c2ccc(C(=O)N3CCN(C)CC3)c(Cl)c2)c2cc(C)[nH]c2c1=O [Example 99, 6-[(E)-but-2-enyl]-4-[3-chloro-4-(4-methylpiperazine-1-carbonyl)phenyl]-2-methyl-1H-pyrrolo[2,3-c]pyridin-7-one]

The compounds below were run against BRD4(BD1) (Homo sapiens (Human), UniProt O60885) (assay: BRD4 AlphaLisa Binding Assay). Settings: not given.

Row | IC50 [nM] | Compound
9 | 1800 | C/C=C/Cn1cc(-c2cc(C(N)=O)ccc2F)c2cc[nH]c2c1=O [Example 40, 3-[6-[(E)-but-2-enyl]-7-oxo-1H-pyrrolo[2,3-c]pyridin-4-yl]-4-fluoro-benzamide]
10 | 320 | C/C=C/Cn1cc(-c2cc(C(=O)NCC(F)F)ccc2OC)c2cc[nH]c2c1=O [Example 69, 3-[6-[(E)-but-2-enyl]-7-oxo-1H-pyrrolo[2,3-c]pyridin-4-yl]-N-(2,2-difluoroethyl)-4-methoxy-benzamide]
11 | 1600 | C/C=C/Cn1cc(-c2cc(C(=O)NC3CCOC3)ccc2OC)c2cc[nH]c2c1=O (stereo not shown) [Example 65, 3-[6-[(E)-but-2-enyl]-7-oxo-1H-pyrrolo[2,3-c]pyridin-4-yl]-4-methoxy-N-tetrahydrofuran-3-yl-benzamide]
12 | 4500 | CCCCCn1cc(-c2cccc(C(=O)N(C)C)c2)c2cc[nH]c2c1=O [Example 13, N,N-dimethyl-3-(7-oxo-6-pentyl-1H-pyrrolo[2,3-c]pyridin-4-yl)benzamide]
13 | 3600 | CN(C)C(=O)c1cccc(-c2cn(CC3CCC3)c(=O)c3[nH]ccc23)c1 [Example 11, 3-[6-(cyclobutylmethyl)-7-oxo-1H-pyrrolo[2,3-c]pyridin-4-yl]-N,N-dimethyl-benzamide]
14 | 1200 | C/C=C/Cn1cc(-c2cccc(C(N)=O)c2F)c2cc[nH]c2c1=O [Example 39, 3-[6-[(E)-but-2-enyl]-7-oxo-1H-pyrrolo[2,3-c]pyridin-4-yl]-2-fluoro-benzamide]
15 | 12000 | CN(C)C(=O)c1cccc(-c2cn(CCC3CCCCC3)c(=O)c3[nH]ccc23)c1 [Example 12, 3-[6-(2-cyclohexylethyl)-7-oxo-1H-pyrrolo[2,3-c]pyridin-4-yl]-N,N-dimethyl-benzamide]
16 | 830 | C/C=C/Cn1cc(-c2cccc(C(=O)NC3CC3)c2)c2cc[nH]c2c1=O [Example 26, 3-[6-[(E)-but-2-enyl]-7-oxo-1H-pyrrolo[2,3-c]pyridin-4-yl]-N-cyclopropyl-benzamide]
17 | 6400 | CN(C)C(=O)c1cccc(-c2cn(CC3CCCC3)c(=O)c3[nH]ccc23)c1 [Example 5, 3-[6-(cyclopentylmethyl)-7-oxo-1H-pyrrolo[2,3-c]pyridin-4-yl]-N,N-dimethyl-benzamide]
18 | 15000 | CN(C)C(=O)c1cccc(-c2cn(CC3CCCCC3)c(=O)c3[nH]ccc23)c1 [Example 9, 3-[6-(cyclohexylmethyl)-7-oxo-1H-pyrrolo[2,3-c]pyridin-4-yl]-N,N-dimethyl-benzamide]
19 | 890 | C/C=C/Cn1cc(-c2ccc(C(N)=O)c(F)c2)c2cc[nH]c2c1=O [Example 20, 4-[6-[(E)-but-2-enyl]-7-oxo-1H-pyrrolo[2,3-c]pyridin-4-yl]-2-fluoro-benzamide]
20 | 1200 | C/C=C/Cn1cc(-c2cc(C(=O)NCC3CC3)ccc2OC)c2cc[nH]c2c1=O [Example 76, 3-[6-[(E)-but-2-enyl]-7-oxo-1H-pyrrolo[2,3-c]pyridin-4-yl]-N-(cyclopropylmethyl)-4-methoxy-benzamide]
21 | 1900 | C/C=C/Cn1cc(-c2ccc3c(c2)NC(C)CC(=O)N3)c2cc[nH]c2c1=O (stereo not shown) [Example 84, 7-[6-[(E)-but-2-enyl]-7-oxo-1H-pyrrolo[2,3-c]pyridin-4-yl]-4-methyl-1,3,4,5-tetrahydro-1,5-benzodiazepin-2-one]
22 | 8000 | CC(C)Cn1cc(-c2cccc(C(=O)N(C)C)c2)c2cc[nH]c2c1=O [Example 16, 3-(6-isobutyl-7-oxo-1H-pyrrolo[2,3-c]pyridin-4-yl)-N,N-dimethyl-benzamide]
23 | 1300 | C/C=C/Cn1cc(-c2cc(C(=O)NC3CCC3)ccc2OC)c2cc[nH]c2c1=O [Example 75, 3-[6-[(E)-but-2-enyl]-7-oxo-1H-pyrrolo[2,3-c]pyridin-4-yl]-N-cyclobutyl-4-methoxy-benzamide]
24 | 510 | C/C=C/Cn1cc(-c2ccc(C(=O)NC3CC3)cc2)c2cc[nH]c2c1=O [Example 28, 4-[6-[(E)-but-2-enyl]-7-oxo-1H-pyrrolo[2,3-c]pyridin-4-yl]-N-cyclopropyl-benzamide]
25 | 2700 | CC/C=C/Cn1cc(-c2cccc(C(=O)N(C)C)c2)c2cc[nH]c2c1=O [Example 7, N,N-dimethyl-3-[7-oxo-6-[(E)-pent-2-enyl]-1H-pyrrolo[2,3-c]pyridin-4-yl]benzamide]
26 | 2100 | C/C=C/Cn1cc(-c2ccc(C(C)(C)C)cc2)c2cc[nH]c2c1=O [Example 23, 6-[(E)-but-2-enyl]-4-(4-tert-butylphenyl)-1H-pyrrolo[2,3-c]pyridin-7-one]
27 | 2100 | CN(C)C(=O)c1cccc(-c2cn(CCC3CC3)c(=O)c3[nH]ccc23)c1 [Example 4, 3-[6-(2-cyclopropylethyl)-7-oxo-1H-pyrrolo[2,3-c]pyridin-4-yl]-N,N-dimethyl-benzamide]
28 | 980 | C/C=C/Cn1cc(-c2cc(C(=O)NC3CC3)ccc2OC)c2cc[nH]c2c1=O [Example 63, 3-[6-[(E)-but-2-enyl]-7-oxo-1H-pyrrolo[2,3-c]pyridin-4-yl]-N-cyclopropyl-4-methoxy-benzamide]
29 | 2300 | CCCCn1cc(-c2cccc(C(=O)N(C)C)c2)c2cc(C)[nH]c2c1=O [Example 86, 3-(6-butyl-2-methyl-7-oxo-1H-pyrrolo[2,3-c]pyridin-4-yl)-N,N-dimethyl-benzamide]
30 | 1600 | C/C=C/Cn1cc(-c2ccc(C(C)C)cc2)c2cc[nH]c2c1=O [Example 31, 6-[(E)-but-2-enyl]-4-(4-isopropylphenyl)-1H-pyrrolo[2,3-c]pyridin-7-one]

What follows are compounds tested against TAF1-BD2 (Homo sapiens (Human), UniProt P21675) (assay: TAF1-BD2 TR-FRET Binding Assay). Settings: Assay: TAF-1.
Chain of TAF1-BD2 (P21675 1525-1656 limits assumed): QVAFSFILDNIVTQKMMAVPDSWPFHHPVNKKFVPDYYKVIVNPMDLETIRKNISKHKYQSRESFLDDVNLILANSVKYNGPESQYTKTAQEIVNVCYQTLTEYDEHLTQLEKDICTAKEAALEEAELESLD
Procedure: Specifically, in a 384 well ProxiPlate TAF1-BD2 (6 nM final) was combined with biotin-ligand (50 nM final) in 50 mM HEPES (pH 7.5), 50 mM NaCl, 1 mM TCEP, 0.01% (w/v) BSA, and 0.008% (w/v) Brij-35 either in the presence of DMSO (final 0.2% DMSO) or compound dilution series in DMSO. After 10 minutes incubation at room temperature, a mixture Eu-W1024 Anti-6×His antibody (Perkin Elmer AD0110) and SureLight™ Allophycocyanin-Streptavidin (APC-SA, Perkin Elmer CR130-100) were added to a final concentrations of 0.2 nMolar antibody and 25 nMolar APC-SA, respectively. After twenty minutes of equilibration, the plates were read on an Envision instrument and IC50s calculated using a four parameter non-linear curve fit.

Row | IC50 [nM] | Compound
31 | 5200 | CC(C)=CCn1cc(-c2cccc(C(=O)N(C)C)c2)c2cc[nH]c2c1=O [Example 3, N,N-dimethyl-3-[6-(3-methylbut-2-enyl)-7-oxo-1H-pyrrolo[2,3-c]pyridin-4-yl]benzamide]
32 | 640 | C/C=C/Cn1cc(-c2cccc(C(=O)NC)c2)c2cc[nH]c2c1=O [Example 25, 3-[6-[(E)-but-2-enyl]-7-oxo-1H-pyrrolo[2,3-c]pyridin-4-yl]-N-methyl-benzamide]
33 | 2000 | C/C=C/Cn1cc(-c2ccc(C(=O)N(C)C)c(Cl)c2)c2cc[nH]c2c1=O [Example 43, 4-[6-[(E)-but-2-enyl]-7-oxo-1H-pyrrolo[2,3-c]pyridin-4-yl]-2-chloro-N,N-dimethyl-benzamide]
34 | 4500 | C/C=C/Cn1cc(-c2ccc(CO)cc2)c2cc[nH]c2c1=O [Example 29, 6-[(E)-but-2-enyl]-4-[4-(hydroxymethyl)phenyl]-1H-pyrrolo[2,3-c]pyridin-7-one]
35 | 1800 | C/C=C/Cn1cc(-c2cc(C(=O)N3CCC3)ccc2OC)c2cc[nH]c2c1=O [Example 71, 4-[5-(azetidine-1-carbonyl)-2-methoxy-phenyl]-6-[(E)-but-2-enyl]-1H-pyrrolo[2,3-c]pyridin-7-one]
36 | 480 | Cc1cc2c(-c3cccc(C(=O)N(C)C)c3)cn(CCC3CC3)c(=O)c2[nH]1 [Example 85, 3-[6-(2-cyclopropylethyl)-2-methyl-7-oxo-1H-pyrrolo[2,3-c]pyridin-4-yl]-N,N-dimethyl-benzamide]
37 | 5600 | CN(C)C(=O)c1cccc(-c2cn(CC3CC3)c(=O)c3[nH]ccc23)c1 [Example 17, 3-[6-(cyclopropylmethyl)-7-oxo-1H-pyrrolo[2,3-c]pyridin-4-yl]-N,N-dimethyl-benzamide]
